Patent publication US10966993B2, “Pharmaceutical composition comprising a sulfonylurea drug and preparation method thereof” (JIANGSU AOSAIKANG PHARMACEUTICAL CO., LTD., priority 2016, dated 2021)
Values after ≈ are worked out from the molar mass of the structure shown. Like-named read-outs stand apart in the source and are kept apart here.

Legend:
[1] = tested on: MCAO rats; assay: Neurobehavioral scoring (Longa) in rat MCAO models; type: in vivo, Sprague-Dawley (SD) rat; conditions: for Neurobehavioral score (Longa Scoring, 0-4): n=8, glibenclamide 10 μg/kg ip at ischemia 4 h + 200 ng/h sc for 44 hours
Method: 7.2 Experiment Animals: Male Sprague-Dawley (SD) rat, clean grade, weighing at 200˜230 g. The temperature of animal feeding room was maintained at 20˜24° C., the humidity was maintained at 30˜70%; a cycle of lighting on 12 hours/lighting off 12 hours (06:00 AM on, 18:00 PM off) every day was employed. During the experiment, the animals were feed separately, and had free access to water and food.
The test drugs in group GB was formulated as follows: glibenclamide was dissolved in a little DMSO (dimethyl sulfoxide), the resulting solution was diluted to a DMSO concentration of 5 vol % with physiological saline, and the pH of the solution was adjusted to 8˜8.5 with NaOH. By means of the above process, solutions with glibenclamide concentration of 200 μg/ml and 10 μg/ml were respectively formulated.
The test drugs in group H-GB was formulated as follows: Taking the lyophilized product of Example 13, into which was added an appropriate amount of physiological saline and respectively formulated into a solution with a glibenclamide concentration of […].
Rats were rested for about 1 week before the experiment started. On the day of the experiment, the surgical tools were sterilized by autoclaving. The rats were anesthetized by intraperitoneally injecting chloral hydrate (330 mg/kg). The common carotid artery and external carotid artery of the rats were separated, and a sterilized MCAO monofilament was used to insert into the internal carotid artery through the opening of the external carotid artery to a depth of about 18 mm, until the head of the monofilament reached the starting part of the middle cerebral artery, the opening of the external carotid artery was ligatured to fix the monofilament. […] The blood flow in the brain was monitored with a laser Doppler (Model moorVMS-LDF2, Manufacturer moor) respectively pre-operation, post-operation and immediately after reperfusion, and the molding in which the ratio of the postoperative blood flow to the preoperative blood flow was less than 30% was regarded as a qualified molding. […]

[2] = Test on the solubility of glibenclamide in additive/cyclodextrin solutions; type: physicochemical; conditions: 25 °C, thermodynamic from solid
Method: An excess amount of glibenclamide powder was added into an aqueous solution comprising different proportion of additive (e.g., meglumine, sodium carbonate, sodium hydrogen carbonate or sodium hydroxide) and cyclodextrin (hydroxypropyl-β-cyclodextrin) to form a suspension. The suspension was placed in a constant shaking incubator, and shaken for 1 h at 25±1° C. The shaken suspension was filtered with a 0.45 μm hydrophilic filter membrane, with the primary filtrate being disposed and the subsequent filtrate being collected. The subsequent filtrate was diluted to appropriate times with a PBS buffer having a pH of 7.4, the absorbance of the diluted subsequent filtrate was determined at a wavelength of 225 nm, and the solubility of glibenclamide in the diluted subsequent filtrate was calculated according to the absorbance. Corresponding solubility curves were plotted with the solubility of glibenclamide as the vertical axis and the concentration of cyclodextrin and/or meglumine as the horizontal axis.

## COc1ccc(Cl)cc1C(=O)NCCc1ccc(S(=O)(=O)NC(=O)NC2CCCCC2)cc1 [glibenclamide, 5-chloro-N-(4-[N-(cyclohexylcarbamoyl)aminosulfonyl]phenethyl)-2-methoxybenzamide]
[1]; at 24 h, 48 h
  neurobehavioral scores compared with the control (in words): declines
[1]; scored at ischemia 24 h
  Neurobehavioral score (Longa Scoring, 0-4): 1.75 ± 0.25
[1]; scored at ischemia 48 h
  Neurobehavioral score (Longa Scoring, 0-4): 2.00 ± 0.19
[2]; aqueous buffer, meglumine 0.1% (w/v), cyclodextrin 0% (w/v), read-out: Solubility
  solubility at 1 h: 960 µg/mL (≈ 1.94 mM)
[2]; aqueous buffer, meglumine 0.5% (w/v), cyclodextrin 0% (w/v), read-out: Solubility
  solubility at 1 h: 1760 µg/mL (≈ 3.56 mM)
[2]; aqueous buffer, meglumine 1% (w/v), cyclodextrin 0% (w/v), read-out: Solubility
  solubility at 1 h: 4930 µg/mL (≈ 9.98 mM)
[2]; aqueous buffer, meglumine 2.5% (w/v), cyclodextrin 0% (w/v), read-out: Solubility
  solubility at 1 h: 8030 µg/mL (≈ 16.3 mM)
[2]; aqueous with cosolvent or surfactant or cyclodextrin, cyclodextrin only, from 0.5% (w/v) to 40% (w/v), read-out: water solubility of glibenclamide
  solubility at 1 h: 1.3 to 120 µg/mL (≈ 0.00263 to 0.243 mM)
[2]; aqueous with cosolvent or surfactant or cyclodextrin, meglumine 0% (w/v), 2-hydroxypropyl-β-cyclodextrin 0.5% (w/v), read-out: Solubility
  solubility at 1 h: 1.3 µg/mL (≈ 0.00263 mM)
[2]; aqueous with cosolvent or surfactant or cyclodextrin, meglumine 0% (w/v), 2-hydroxypropyl-β-cyclodextrin 1.25% (w/v), read-out: Solubility
  solubility at 1 h: 3.1 µg/mL (≈ 0.00628 mM)
[2]; aqueous with cosolvent or surfactant or cyclodextrin, meglumine 0% (w/v), 2-hydroxypropyl-β-cyclodextrin 2.5% (w/v), read-out: Solubility
  solubility at 1 h: 5.8 µg/mL (≈ 0.0117 mM)
[2]; aqueous with cosolvent or surfactant or cyclodextrin, meglumine 0% (w/v), 2-hydroxypropyl-β-cyclodextrin 5% (w/v), read-out: Solubility
  solubility at 1 h: 14 µg/mL (≈ 0.0283 mM)
[2]; aqueous with cosolvent or surfactant or cyclodextrin, meglumine 0% (w/v), 2-hydroxypropyl-β-cyclodextrin 10% (w/v), read-out: Solubility
  solubility at 1 h: 32 µg/mL (≈ 0.0648 mM)
[2]; aqueous with cosolvent or surfactant or cyclodextrin, meglumine 0.1% (w/v), 2-hydroxypropyl-β-cyclodextrin 0.5% (w/v), read-out: Solubility
  solubility at 1 h: 1250 µg/mL (≈ 2.53 mM)
[2]; aqueous with cosolvent or surfactant or cyclodextrin, meglumine 0.1% (w/v), 2-hydroxypropyl-β-cyclodextrin 1.25% (w/v), read-out: Solubility
  solubility at 1 h: 1420 µg/mL (≈ 2.87 mM)
[2]; aqueous with cosolvent or surfactant or cyclodextrin, meglumine 0.1% (w/v), 2-hydroxypropyl-β-cyclodextrin 2.5% (w/v), read-out: Solubility
  solubility at 1 h: 1660 µg/mL (≈ 3.36 mM)
[2]; aqueous with cosolvent or surfactant or cyclodextrin, meglumine 0.1% (w/v), 2-hydroxypropyl-β-cyclodextrin 5% (w/v), read-out: Solubility
  solubility at 1 h: 2170 µg/mL (≈ 4.39 mM)
[2]; aqueous with cosolvent or surfactant or cyclodextrin, meglumine 0.1% (w/v), 2-hydroxypropyl-β-cyclodextrin 10% (w/v), read-out: Solubility
  solubility at 1 h: 2170 µg/mL (≈ 4.39 mM)
[2]; aqueous with cosolvent or surfactant or cyclodextrin, meglumine 0.1% (w/v), 2-hydroxypropyl-β-cyclodextrin 20% (w/v), read-out: Solubility
  solubility at 1 h: 2230 µg/mL (≈ 4.51 mM)
[2]; aqueous with cosolvent or surfactant or cyclodextrin, meglumine 0.1% (w/v), 2-hydroxypropyl-β-cyclodextrin 30% (w/v), read-out: Solubility
  solubility at 1 h: 2210 µg/mL (≈ 4.47 mM)
[2]; aqueous with cosolvent or surfactant or cyclodextrin, meglumine 0.1% (w/v), 2-hydroxypropyl-β-cyclodextrin 40% (w/v), read-out: Solubility
  solubility at 1 h: 2280 µg/mL (≈ 4.62 mM)
[2]; aqueous with cosolvent or surfactant or cyclodextrin, meglumine 0.1% (w/v), cyclodextrin from 0.5% (w/v) to 5% (w/v), read-out: water solubility of glibenclamide
  solubility at 1 h: 1250 to 2170 µg/mL (≈ 2.53 to 4.39 mM)
[2]; aqueous with cosolvent or surfactant or cyclodextrin, meglumine 0.1% (w/v), cyclodextrin from 5% (w/v) to 40% (w/v), read-out: solubility of glibenclamide
  solubility at 1 h: ~2170 µg/mL (≈ 4.39 mM)
[2]; aqueous with cosolvent or surfactant or cyclodextrin, meglumine 5% (w/v), 2-hydroxypropyl-β-cyclodextrin 5% (w/v), read-out: Solubility
  solubility at 1 h: 25200 µg/mL (≈ 51.1 mM)
[2]; aqueous with cosolvent or surfactant or cyclodextrin, meglumine 5% (w/v), 2-hydroxypropyl-β-cyclodextrin 10% (w/v), read-out: Solubility
  solubility at 1 h: 34400 µg/mL (≈ 69.7 mM)
[2]; aqueous with cosolvent or surfactant or cyclodextrin, meglumine 5% (w/v), 2-hydroxypropyl-β-cyclodextrin 20% (w/v), read-out: Solubility
  solubility at 1 h: 42200 µg/mL (≈ 85.5 mM)
[2]; aqueous with cosolvent or surfactant or cyclodextrin, meglumine 5% (w/v), 2-hydroxypropyl-β-cyclodextrin 30% (w/v), read-out: Solubility
  solubility at 1 h: 49400 µg/mL (≈ 99.9 mM)
[2]; aqueous with cosolvent or surfactant or cyclodextrin, meglumine 5% (w/v), 2-hydroxypropyl-β-cyclodextrin 40% (w/v), read-out: Solubility
  solubility at 1 h: 51000 µg/mL (≈ 103 mM)
[2]; aqueous with cosolvent or surfactant or cyclodextrin, meglumine 5% (w/v), cyclodextrin 0% (w/v), read-out: Solubility
  solubility at 1 h: 13000 µg/mL (≈ 26.4 mM)
[2]; aqueous with cosolvent or surfactant or cyclodextrin, meglumine 5% (w/v), cyclodextrin from 5% (w/v) to 30% (w/v), read-out: water solubility of glibenclamide
  solubility at 1 h: 25200 to 49400 µg/mL (≈ 51.1 to 99.9 mM)
